# Reference: PubChem BioAssay AID1259407 (Chemical Carcinogenesis Research Information System (CCRIS), 2018)
# Active and inactive are the calls of the source. How the calls were made is not given here.
# Test system: CCRIS mutagenicity, Ames/micronucleus/aberration tests
# Assay: CCRIS mutagenicity studies
# [1] = Test System: AMES SALMONELLA TYPHIMURIUM, Strain/Indicator: TA98, Metabolic Activation: NONE, Method: STANDARD PLATE
# [2] = Test System: AMES SALMONELLA TYPHIMURIUM, Strain/Indicator: TA98, Metabolic Activation: RAT, LIVER, S-9, AROCLOR 1254, Method: STANDARD PLATE
# [3] = Test System: AMES SALMONELLA TYPHIMURIUM, Strain/Indicator: TA100, Metabolic Activation: NONE, Method: STANDARD PLATE
# [4] = Test System: AMES SALMONELLA TYPHIMURIUM, Strain/Indicator: TA100, Metabolic Activation: RAT, LIVER, S-9, AROCLOR 1254, Method: STANDARD PLATE
# [5] = Test System: AMES SALMONELLA TYPHIMURIUM, Strain/Indicator: TA1535, Metabolic Activation: NONE, Method: STANDARD PLATE
# [6] = Test System: AMES SALMONELLA TYPHIMURIUM, Strain/Indicator: TA1535, Metabolic Activation: RAT, LIVER, S-9, AROCLOR 1254, Method: STANDARD PLATE
# [7] = Test System: AMES SALMONELLA TYPHIMURIUM, Strain/Indicator: TA1537, Metabolic Activation: NONE, Method: STANDARD PLATE
# [8] = Test System: AMES SALMONELLA TYPHIMURIUM, Strain/Indicator: TA1537, Metabolic Activation: RAT, LIVER, S-9, AROCLOR 1254, Method: STANDARD PLATE
# [9] = Test System: AMES SALMONELLA TYPHIMURIUM, Strain/Indicator: TA1538, Metabolic Activation: NONE, Method: STANDARD PLATE
# [10] = Test System: AMES SALMONELLA TYPHIMURIUM, Strain/Indicator: TA1538, Metabolic Activation: RAT, LIVER, S-9, AROCLOR 1254, Method: STANDARD PLATE
compound,measurement,setting,value
O=C(O)c1cc(O)c2c(c1)C(=O)c1cccc(O)c1C2=O,mutagenic call,"Test System: AMES SALMONELLA TYPHIMURIUM, Strain/Indicator: TA97A, Metabolic Activation: NONE, Method: STANDARD PLATE",inactive; negative
same,mutagenic call,"Test System: AMES SALMONELLA TYPHIMURIUM, Strain/Indicator: TA97A, Metabolic Activation: RAT, LIVER, S-9, AROCLOR 1254, Method: STANDARD PLATE",inactive; negative
same,mutagenic call,[1],inactive; negative
same,mutagenic call,[2],inactive; negative
same,mutagenic call,[3],inactive; negative
same,mutagenic call,[4],inactive; negative
same,mutagenic call,"Test System: AMES SALMONELLA TYPHIMURIUM, Strain/Indicator: TA102, Metabolic Activation: NONE, Method: STANDARD PLATE",inactive; negative
same,mutagenic call,"Test System: AMES SALMONELLA TYPHIMURIUM, Strain/Indicator: TA102, Metabolic Activation: RAT, LIVER, S-9, AROCLOR 1254, Method: STANDARD PLATE",inactive; negative
same,mutagenic call,[5],inactive; negative
same,mutagenic call,[6],inactive; negative
same,mutagenic call,[7],inactive; negative
same,mutagenic call,[8],inactive; negative
same,mutagenic call,[9],inactive; negative
same,mutagenic call,[10],inactive; negative
same,mutagenic call,"Test System: Ames Salmonella typhimurium, Strain/Indicator: TA102, Metabolic Activation: None, Method: Preincubation",active; positive
same,mutagenic call,"Test System: Ames Salmonella typhimurium, Strain/Indicator: TA102, Metabolic Activation: Rat, Liver, S-9, Aroclor 1254 in 0.154 M KCl, Method: Preincubation",active; positive
same,mutagenic call,"Test System: MOUSE LYMPHOMA, Strain/Indicator: L5178Y (TK+/TK-), Metabolic Activation: NONE, Method: SUSPENSION/PLATE",inactive; negative
same,mutagenic call,"Test System: MOUSE LYMPHOMA, Strain/Indicator: L5178Y (TK+/TK-), Metabolic Activation: RAT, LIVER, S-9, AROCLOR 1254, Method: SUSPENSION/PLATE",inactive; negative
O=[N+]([O-])CBr,mutagenic call,"End Point: In vitro micronucleus, Test System: Human lymphoblastoid TK6 cells, Metabolic Activation: None",inactive; negative
same,mutagenic call,"End Point: In vitro micronucleus, Test System: Human peripheral blood lymphocytes, Metabolic Activation: None",inactive; negative
same,mutagenic call,"Test System: Ames Salmonella typhimurium, Strain/Indicator: RSJ100, Metabolic Activation: None, Method: Standard plate",inactive; negative
same,mutagenic call,"Test System: Ames Salmonella typhimurium, Strain/Indicator: RSJ100, Metabolic Activation: Rat, Liver, S-9, Aroclor, Method: Standard plate",inactive; negative
same,mutagenic call,"Test System: Ames Salmonella typhimurium, Strain/Indicator: TA98, Metabolic Activation: None, Method: Standard plate",inactive; negative
same,mutagenic call,"Test System: Ames Salmonella typhimurium, Strain/Indicator: TA98, Metabolic Activation: Rat, Liver, S-9, Aroclor, Method: Standard plate",inactive; negative
same,mutagenic call,"Test System: Ames Salmonella typhimurium, Strain/Indicator: TA100, Metabolic Activation: None, Method: Standard plate",active; positive
same,mutagenic call,"Test System: Ames Salmonella typhimurium, Strain/Indicator: TA100, Metabolic Activation: Rat, Liver, S-9, Aroclor, Method: Standard plate",active; positive
same,mutagenic call,"Test System: Ames Salmonella typhimurium, Strain/Indicator: TA104, Metabolic Activation: None, Method: Standard plate",inactive; negative
same,mutagenic call,"Test System: Ames Salmonella typhimurium, Strain/Indicator: TPT100, Metabolic Activation: None, Method: Standard plate",inactive; negative
CC(C)(C)NC[C@H](O)COc1ccc(O)cc1C1CCCC1,mutagenic call,[1],inactive; negative
same,mutagenic call,[2],inactive; negative
COc1cc2c(cc1OC)-c1c3c(cc4c1[C@H](C2)N(C)CC4)OCO3,mutagenic call,"Test System: AMES SALMONELLA TYPHIMURIUM, Strain/Indicator: TA98, Metabolic Activation: RAT, LIVER, S-9, PHENOBARBITAL AND BETA-NAPHTHOFLAVONE, Method: PREINCUBATION",active; positive
same,mutagenic call,"Test System: AMES SALMONELLA TYPHIMURIUM, Strain/Indicator: TA100, Metabolic Activation: RAT, LIVER, S-9, PHENOBARBITAL AND BETA-NAPHTHOFLAVONE, Method: PREINCUBATION",active; positive
[N-]=[N+]=NCC(O)Cn1cnc2c(N)ncnc21 (stereo not given),mutagenic call,[3],active; positive
NCC1CCC(C(=O)c2ccc(CCC(=O)O)cc2)CC1 (stereo not given),mutagenic call,[1],inactive; negative
same,mutagenic call,[2],inactive; negative
same,mutagenic call,[3],inactive; negative
same,mutagenic call,[4],inactive; negative
same,mutagenic call,[5],inactive; negative
same,mutagenic call,[6],inactive; negative
same,mutagenic call,[7],inactive; negative
same,mutagenic call,[8],inactive; negative
same,mutagenic call,[9],inactive; negative
same,mutagenic call,[10],inactive; negative
same,mutagenic call,"Test System: E. COLI, Strain/Indicator: WP2 UVRA, Metabolic Activation: NONE, Method: STANDARD PLATE",inactive; negative
same,mutagenic call,"Test System: E. COLI, Strain/Indicator: WP2 UVRA, Metabolic Activation: RAT, LIVER, S-9, AROCLOR 1254, Method: STANDARD PLATE",inactive; negative
CCOC(=O)c1cccc2cccnc12,mutagenic call,[1],inactive; negative
same,mutagenic call,[2],inactive; negative
same,mutagenic call,[3],inactive; negative
same,mutagenic call,[4],inactive; negative
same,mutagenic call,[5],inactive; negative
same,mutagenic call,[6],inactive; negative
same,mutagenic call,[7],inactive; negative
same,mutagenic call,[8],inactive; negative
OCCOCCOCCO,mutagenic call,"Test System: AMES SALMONELLA TYPHIMURIUM, Strain/Indicator: TA98, Metabolic Activation: NONE, Method: PREINCUBATION",inactive; negative
same,mutagenic call,"Test System: AMES SALMONELLA TYPHIMURIUM, Strain/Indicator: TA98, Metabolic Activation: RAT LIVER S-9, PHENOBARBITAL AND BETA-NAPHTHOFLAVONE, Method: PREINCUBATION",inactive; negative
same,mutagenic call,"Test System: AMES SALMONELLA TYPHIMURIUM, Strain/Indicator: TA100, Metabolic Activation: NONE, Method: PREINCUBATION",inactive; negative
same,mutagenic call,"Test System: AMES SALMONELLA TYPHIMURIUM, Strain/Indicator: TA100, Metabolic Activation: RAT LIVER S-9, PHENOBARBITAL AND BETA-NAPHTHOFLAVONE, Method: PREINCUBATION",inactive; negative
same,mutagenic call,"Test System: AMES SALMONELLA TYPHIMURIUM, Strain/Indicator: TA1535, Metabolic Activation: NONE, Method: PREINCUBATION",inactive; negative
same,mutagenic call,"Test System: AMES SALMONELLA TYPHIMURIUM, Strain/Indicator: TA1535, Metabolic Activation: RAT LIVER S-9, PHENOBARBITAL AND BETA-NAPHTHOFLAVONE, Method: PREINCUBATION",inactive; negative
same,mutagenic call,"Test System: AMES SALMONELLA TYPHIMURIUM, Strain/Indicator: TA1537, Metabolic Activation: NONE, Method: PREINCUBATION",inactive; negative
same,mutagenic call,"Test System: AMES SALMONELLA TYPHIMURIUM, Strain/Indicator: TA1537, Metabolic Activation: RAT LIVER S-9, PHENOBARBITAL AND BETA-NAPHTHOFLAVONE, Method: PREINCUBATION",inactive; negative
same,mutagenic call,"Test System: AMES SALMONELLA TYPHIMURIUM, Strain/Indicator: TA1538, Metabolic Activation: NONE, Method: PREINCUBATION",inactive; negative
same,mutagenic call,"Test System: AMES SALMONELLA TYPHIMURIUM, Strain/Indicator: TA1538, Metabolic Activation: RAT LIVER S-9, PHENOBARBITAL AND BETA-NAPHTHOFLAVONE, Method: PREINCUBATION",inactive; negative
same,mutagenic call,"Test System: E.COLI, Strain/Indicator: WP2UVRA, Metabolic Activation: NONE, Method: PREINCUBATION",inactive; negative
same,mutagenic call,"Test System: E.COLI, Strain/Indicator: WP2UVRA, Metabolic Activation: RAT LIVER S-9, PHENOBARBITAL AND BETA-NAPHTHOFLAVONE, Method: PREINCUBATION",inactive; negative
